In ChEMBL document CHEMBL1201862, “PubChem BioAssay data set” (2004):
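Interpolation was linear, between the two tested concentrations surrounding the appropriate level; five concentrations were tested over 48 hours in 96-well plates. At the GI50, growth is halved.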 Activity calls are given as the source filed them. No stated cut-off is given here; in the data, active = GI50 up to about 1.1 µM and inactive = higher.

Experiments:
Experiment in all cases: DTP human tumour cell line panel, 48 h
786-0 = test system: 786-0
EKVX = test system: EKVX
HCC 2998 = test system: HCC 2998
HCT-15 = test system: HCT-15
HL-60 = test system: HL-60
HT-29 = test system: HT-29
LOX IMVI = test system: LOX IMVI
MCF7 = test system: MCF7
Malme-3M = test system: Malme-3M
NCI-H226 = test system: NCI-H226
NCI-H460 = test system: NCI-H460
OVCAR-3 = test system: OVCAR-3
SK-MEL-2 = test system: SK-MEL-2
SR = test system: SR
SW-620 = test system: SW-620
TK-10 = test system: TK-10
U-251 = test system: U-251
UACC-257 = test system: UACC-257
KM12 = test system: KM12
SNB-75 = test system: SNB-75

| Compound | GI50 (786-0) | GI50 (EKVX) | GI50 (HCC 2998) | GI50 (HCT-15) | GI50 (HL-60) | GI50 (HT-29) | GI50 (LOX IMVI) | GI50 (MCF7) | GI50 (Malme-3M) | GI50 (NCI-H226) | GI50 (NCI-H460) | GI50 (OVCAR-3) | GI50 (SK-MEL-2) | GI50 (SR) | GI50 (SW-620) | GI50 (TK-10) | GI50 (U-251) | GI50 (UACC-257) | GI50 (KM12) | GI50 (SNB-75) |
| --- | --- | --- | --- | --- | --- | --- | --- | --- | --- | --- | --- | --- | --- | --- | --- | --- | --- | --- | --- | --- |
| Cc1cccc(N2C(=O)C3c4[nH]c5ccccc5c4C4CCC(C(C)(C)C)CC4C3C2=O)c1C (stereo not given) | 38.7 µM (inactive) | 29.7 µM (inactive) | > 100 µM (inactive) | > 100 µM | 16.9 µM (inactive) | > 100 µM (inactive) | > 100 µM (inactive) | > 100 µM (inactive) | > 100 µM (inactive) | > 100 µM (inactive) | > 100 µM (inactive) | > 100 µM (inactive) | > 100 µM (inactive) | > 100 µM (inactive) | 40 µM (inactive) | > 100 µM (inactive) | 28.2 µM (inactive) | > 100 µM (inactive) |  |  |
| CCC1=NC(N/N=C/c2ccco2)=N/C1=C\c1ccccc1O | 39.7 µM (inactive) | 26.7 µM (inactive) | 20.8 µM (inactive) | 12.6 µM | 27.4 µM (inactive) | 36 µM (inactive) | 35 µM (inactive) | 17.9 µM (inactive) | 31 µM (inactive) | 28.4 µM (inactive) | 14.9 µM (inactive) |  | 25.9 µM (inactive) | 48.4 µM (inactive) | 63.4 µM (inactive) | 59.4 µM (inactive) | 56.4 µM (inactive) | 35.2 µM (inactive) | 31.5 µM (inactive) |  |
| C[C@H](NC1=C(Cl)C(=O)c2c(O)ccc(O)c2C1=O)C(=O)Nc1ccc([N+](=O)[O-])cc1 | 1.6 µM (inactive) | 4.93 µM (inactive) | 3.33 µM (inactive) | 1.93 µM |  | 2.62 µM (inactive) |  | 1.75 µM (inactive) | 1.19 µM (inactive) | 1.91 µM (inactive) | 2.06 µM (inactive) | 1.38 µM (inactive) | 3.52 µM (inactive) | 2.47 µM (inactive) | 3.05 µM (inactive) | 1.95 µM (inactive) | 2.58 µM (inactive) | 1.95 µM (inactive) | 1.82 µM (inactive) | 4.04 µM (inactive) |
| CCOC(=O)/C(C#N)=C\c1ccc(N(CCC(=O)O)CCC(=O)O)c(I)c1 | > 10 µM (inactive) | > 10 µM (inactive) | > 10 µM (inactive) | > 10 µM | > 10 µM (inactive) | > 10 µM (inactive) | > 10 µM (inactive) | > 10 µM (inactive) | > 10 µM (inactive) | > 10 µM (inactive) | > 10 µM (inactive) |  |  | > 10 µM (inactive) | > 10 µM (inactive) | > 10 µM (inactive) |  | > 10 µM (inactive) | > 10 µM (inactive) | > 10 µM (inactive) |
| CCOC(=O)c1cn(CC)c2cc3c(cc2c1=O)CCS3(=O)=O | > 100 µM (inactive) | > 100 µM (inactive) | > 100 µM (inactive) | > 100 µM | > 100 µM (inactive) | > 100 µM (inactive) |  | > 100 µM (inactive) | > 100 µM (inactive) | > 100 µM (inactive) | > 100 µM (inactive) | > 100 µM (inactive) | 19.1 µM (inactive) | > 100 µM (inactive) | > 100 µM (inactive) | > 100 µM (inactive) | > 100 µM (inactive) |  | > 100 µM (inactive) |  |
| O=S(=O)(c1cc(Cl)ccc1Cl)N1CCN(c2cccc(Cl)c2)CC1 | > 100 µM (inactive) | > 100 µM (inactive) | > 100 µM (inactive) | > 100 µM | > 100 µM (inactive) | 58.7 µM (inactive) | > 100 µM (inactive) | > 100 µM (inactive) | > 100 µM (inactive) | > 100 µM (inactive) | > 100 µM (inactive) | > 100 µM (inactive) |  | > 100 µM (inactive) | > 100 µM (inactive) | > 100 µM (inactive) | > 100 µM (inactive) | > 100 µM (inactive) | > 100 µM (inactive) | > 100 µM (inactive) |
| Cc1ccc(O)c(C(=O)/C=C/c2ccccc2)c1 | > 100 µM (inactive) | > 100 µM (inactive) | > 100 µM (inactive) | > 100 µM | 23.1 µM (inactive) | > 100 µM (inactive) | > 100 µM (inactive) | > 100 µM (inactive) |  | > 100 µM (inactive) | > 100 µM (inactive) | > 100 µM (inactive) | > 100 µM (inactive) | > 100 µM (inactive) | > 100 µM (inactive) | > 100 µM (inactive) | > 100 µM (inactive) | > 100 µM (inactive) | 1.37 µM (inactive) | 49 µM (inactive) |
| CCCCc1ccc(N2C(=O)c3cc([N+](=O)[O-])cnc3S2(=O)=O)cc1 | > 100 µM (inactive) | > 100 µM (inactive) | > 100 µM (inactive) | > 100 µM |  | > 100 µM (inactive) | 61.7 µM (inactive) | 59.8 µM (inactive) | > 100 µM (inactive) | > 100 µM (inactive) | > 100 µM (inactive) | > 100 µM (inactive) | 23.3 µM (inactive) | 43.3 µM (inactive) | > 100 µM (inactive) | > 100 µM (inactive) | 31.8 µM (inactive) | > 100 µM (inactive) | > 100 µM (inactive) | > 100 µM (inactive) |
| CN(C)CCOc1ccc([N+](=O)[O-])c2cccnc12 | > 100 µM (inactive) |  | > 100 µM (inactive) | > 100 µM | > 100 µM (inactive) | 39.4 µM (inactive) |  | > 100 µM (inactive) | > 100 µM (inactive) | > 100 µM (inactive) | > 100 µM (inactive) | > 100 µM (inactive) | > 100 µM (inactive) | > 100 µM (inactive) | 78.7 µM (inactive) | > 100 µM (inactive) | > 100 µM (inactive) | 86.9 µM (inactive) | > 100 µM (inactive) | 40.8 µM (inactive) |
| O=C1NC(=S)NC1C(Cc1ccccc1)c1ccco1 (stereo not given) | > 100 µM (inactive) | > 100 µM (inactive) | > 100 µM (inactive) | > 100 µM | 39.6 µM (inactive) | > 100 µM (inactive) | > 100 µM (inactive) | 6.76 µM (inactive) | > 100 µM (inactive) | > 100 µM (inactive) | > 100 µM (inactive) |  |  | 75.3 µM (inactive) | > 100 µM (inactive) | > 100 µM (inactive) | > 100 µM (inactive) | > 100 µM (inactive) | > 100 µM (inactive) | > 100 µM (inactive) |
| Cc1cc(O)c2c(c1)C(C1OC(CO)C(O)C(O)C1O)c1cc(O)cc(O)c1C2=O (stereo not given) | > 100 µM (inactive) | > 100 µM (inactive) | > 100 µM (inactive) | > 100 µM | > 100 µM (inactive) | > 100 µM (inactive) |  | > 100 µM (inactive) | > 100 µM (inactive) | > 100 µM (inactive) | > 100 µM (inactive) | > 100 µM (inactive) |  | > 100 µM (inactive) | > 100 µM (inactive) | > 100 µM (inactive) | > 100 µM (inactive) | > 100 µM (inactive) |  | > 100 µM (inactive) |
| Cc1oc2nc(N(C)C)n3nnnc3c2c1C | 70.1 µM (inactive) | > 100 µM (inactive) | > 100 µM (inactive) | > 100 µM | 18.6 µM (inactive) | > 100 µM (inactive) | > 100 µM (inactive) | > 100 µM (inactive) |  | > 100 µM (inactive) |  |  |  | > 10 µM (inactive) | > 100 µM (inactive) | > 100 µM (inactive) | > 100 µM (inactive) | > 100 µM (inactive) | > 100 µM (inactive) | 67.5 µM (inactive) |
| Cc1ccc(OCCn2cc(Nc3ccccc3)c(=O)[nH]c2=O)cc1 | > 100 µM (inactive) | > 100 µM (inactive) | > 100 µM (inactive) | > 100 µM |  | 81.7 µM (inactive) | > 100 µM (inactive) | > 100 µM (inactive) | > 100 µM (inactive) | > 100 µM (inactive) | > 100 µM (inactive) | > 100 µM (inactive) | > 100 µM (inactive) | > 100 µM (inactive) | > 100 µM (inactive) | > 100 µM (inactive) | > 100 µM (inactive) | > 100 µM (inactive) | > 100 µM (inactive) | 34.3 µM (inactive) |
| Cc1cc2c(nn1)-c1ccccc1C2=O | > 10 µM (inactive) | > 10 µM (inactive) | > 10 µM (inactive) | > 10 µM | > 10 µM (inactive) | > 10 µM (inactive) | > 10 µM (inactive) | > 10 µM (inactive) | > 10 µM (inactive) | > 10 µM (inactive) | > 10 µM (inactive) | > 10 µM (inactive) | > 10 µM (inactive) | > 10 µM (inactive) | > 10 µM (inactive) | > 10 µM (inactive) | > 10 µM (inactive) |  | > 10 µM (inactive) |  |
| Cc1cccc(Nc2cc(Cl)nc(SCC(=O)O)n2)c1C [PIRINIXIC ACID] | > 100 µM (inactive) | > 100 µM (inactive) |  | > 100 µM | > 100 µM (inactive) | > 100 µM (inactive) | > 100 µM (inactive) | > 100 µM (inactive) | > 100 µM (inactive) | > 100 µM (inactive) | > 100 µM (inactive) | > 100 µM (inactive) | > 100 µM (inactive) | > 100 µM (inactive) | > 100 µM (inactive) | > 100 µM (inactive) | > 100 µM (inactive) | > 100 µM (inactive) | > 100 µM (inactive) | > 100 µM (inactive) |
